Legend:
Histamine H2-receptor = biological target: T1, Histamine H2-receptor (Cavia porcellus, UniProt P47747); assay: Histamine H2-receptor antagonism (isolated right atrium, positive chronotropic effect of histamine); set-up: species or system Male Hartley guinea-pigs; conditions: guinea-pig right atrium, 32±1° C., drugs added 5 minutes before histamine; read-out: pA2 (converted)
T1 construct: The right atrium was dissected and suspended at 0.5 g tension in a 10 ml organ bath; from tissue; host or cells: isolated right atrium of male Hartley guinea-pigs
T1 sequence (P47747 whole entry): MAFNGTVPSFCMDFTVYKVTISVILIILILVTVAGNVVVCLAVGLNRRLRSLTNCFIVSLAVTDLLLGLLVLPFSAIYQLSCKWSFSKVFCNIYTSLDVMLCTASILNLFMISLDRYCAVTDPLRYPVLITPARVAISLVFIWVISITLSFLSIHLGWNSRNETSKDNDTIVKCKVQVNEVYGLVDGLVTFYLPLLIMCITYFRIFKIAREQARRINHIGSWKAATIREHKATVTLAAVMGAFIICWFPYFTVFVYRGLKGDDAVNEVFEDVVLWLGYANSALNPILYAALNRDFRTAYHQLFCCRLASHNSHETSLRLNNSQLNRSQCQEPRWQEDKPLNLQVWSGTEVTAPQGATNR
Method: Male Hartley guinea-pigs, weighing between 300 and 400 g, were used in the experiment. The right atrium was dissected and suspended at 0.5 g tension in a 10 ml organ bath containing Krebs-Henseleit's solution, kept at 32±1° C. and bubbled with the gas mixture (95 % O2 and 5 % CO2). Contractions were recorded with a force-displacement transducer through a strain gange. […] Drugs were added into the organ bath 5 minutes before histamine treatment.

[1] = tested on: 0.6 N HCl-induced gastric lesions; assay: Gastric cytoprotection (0.6 N HCl-induced gastric lesions); assay type: in vivo, Male Donryu rats; conditions: p.o., an hour before 0.6 N HCl, lesion length
Method: Male Donryu rats, weighing about 200 g, were deprived of food and water for 24 hours. One ml of 0.6N HCl solution was given orally and the animals were killed an hour later. […] The length (mm) of each gastric lesion was measured under a dissecting microscope, summed, and used as an index for evaluation. Drugs were orally given an hour before 0.6 N HCl solution treatment.

[2] = tested on: Gastric secretion (acid output); assay: Gastric antisecretion (Acute fistula method, histamine-stimulated, pylorus-ligated rats); assay type: in vivo, Male Donryu rats; conditions: i.d., histamine 10 mg/kg i.m.
Method: Male Donryu rats, weighing about 200 g, were fasted for 24 hours before the experiment. […] The gastric cannula was implanted in the forestomach (Acute fistula method). Gastric secretion from cannula was collected into test tubes every one hour and the acid output was titrated. Histamine (10 mg/kg) was intramuscularly given after the first collection of gastric juice. Drugs were intraduodenally given after the second collection of the gastric juice.

SMILES	Kb (Histamine H2-receptor)	Inhibition (%) ([1]; Dose 50 mg/kg)	Inhibition (%) ([2]; Dose 25 mg/kg)	Inhibition (%) ([1]; Dose 6 mg/kg)	Inhibition (%) ([1]; Dose 25 mg/kg)	Inhibition (%) ([2]; Dose 5 mg/kg)	other results
CCOc1ccc(NC(=O)NCCCOc2cccc(CN3CCCCC3)c2)cc1 [Example 51, N-(4-Ethoxyphenyl)-N'-[3-(3-piperidinomethylphenoxy)propyl]urea]	251 nM	63.4%	97.1%	–	–	–	Inhibition (%) ([2]; Dose 1 mg/kg): 29.0%; Inhibition (%) ([2]; Dose 6 mg/kg): 52.7%
CCNC(=O)NCCCOc1cccc(CN2CCCCC2)c1 [Example 16, N-Ethyl-N'-[3-(3-piperidinomethylphenoxy)propyl]urea]	66.1 nM	89.4%	–	52.6%	78.0%	49.5%	Inhibition (%) ([2]; Dose 10 mg/kg): 77.2%
CN/C(=N/CCSCc1nc[nH]c1C)NC#N [Cimetidine, reference compound]	–	–	80.0%	–	–	–	Inhibition (%) ([1]; Dose 100 mg/kg): 22.0%; Inhibition (%) ([2]; Dose 12.5 mg/kg): 51.9%; Inhibition (%) ([2]; Dose 50 mg/kg): 100.0%
CCCNC(=O)NCCCOc1cccc(CN2CCCCC2)c1 [Example 8]	41.7 nM	–	–	55.4%	–	–	Inhibition (%) ([1]; Dose 1 mg/kg): 26.4%; Inhibition (%) ([1]; Dose 16 mg/kg): 67.4%; Inhibition (%) ([2]; Dose 1 mg/kg): 49.5%; Inhibition (%) ([2]; Dose 3 mg/kg): 77.5%; Inhibition (%) ([2]; Dose 6 mg/kg): 81.3%
CNC(=O)NC/C=C\COc1cccc(CN2CCCCC2)c1 [Example 29]	35.5 nM	–	–	–	73.8%	80.8%	Inhibition (%) ([1]; Dose 5 mg/kg): 49.3%; Inhibition (%) ([2]; Dose 3 mg/kg): 39.1%
COc1ccc(NC(=O)NCCCOc2cccc(CN3CCCCC3)c2)cc1 [Example 1, N-(4-Methoxyphenyl)-N'-[3-(3-piperidinomethylphenoxy)propyl]urea]	263 nM	45.1%	98.5%	–	30.1%	–	Inhibition (%) ([1]; Dose 100 mg/kg): 67.4%; Inhibition (%) ([2]; Dose 12.5 mg/kg): 70.7%
CC(C)NC(=O)NCCCOc1cccc(CN2CCCCC2)c1 [Example 54]	27.5 nM	70.1%	–	36.1%	73.0%	68.2%	Inhibition (%) ([2]; Dose 2 mg/kg): 16.1%; Inhibition (%) ([2]; Dose 10 mg/kg): 78.8%
